Data as given in the kinase profiling compilation of Christmann-Franck et al. (2016).

Experiments:
Assay in all cases: KINOMEscan competition binding
Settings in all cases: compound 10.0 µM
[1] = target: CDK2 (human) (UniProt P24941)
[2] = target: PTK2 (human) (UniProt Q05397)
[3] = target: SRPK2 (human) (UniProt P78362)
[4] = target: TEK (human) (UniProt Q02763)
[5] = system: KIT (human), P10721 [V559D/V654A]
[6] = target: TLK1 (human) (UniProt Q9UKI8)
[7] = target: PIM2 (human) (UniProt Q9P1W9)
[8] = target: RIPK2 (human) (UniProt O43353)
[9] = target: PRPF4B (human) (UniProt Q13523)
[10] = target: NEK7 (human) (UniProt Q8TDX7)
[11] = target: IRAK4 (human) (UniProt Q9NWZ3)
[12] = target: SIK3 (human) (UniProt Q9Y2K2)
[13] = target: SRMS (human) (UniProt Q9H3Y6)
[14] = target: CDK18 (human) (UniProt Q07002)
[15] = target: AURKC (human) (UniProt Q9UQB9)
[16] = target: MUSK (human) (UniProt O15146)
[17] = target: HIPK4 (human) (UniProt Q8NE63)
[18] = target: TYRO3 (human) (UniProt Q06418)
[19] = target: WEE2 (human) (UniProt P0C1S8)
[20] = target: FGFR4 (human) (UniProt P22455)
[21] = target: DAPK1 (human) (UniProt P53355)
[22] = target: DDR1 (human) (UniProt Q08345)
[23] = target: AURKB (human) (UniProt Q96GD4)
[24] = target: FER (human) (UniProt P16591)
[25] = target: TRPM6 (human) (UniProt Q9BX84)
[26] = target: ITK (human) (UniProt Q08881)
[27] = target: STK38 (human) (UniProt Q15208)
[28] = target: PRKCH (human) (UniProt P24723)
[29] = target: CSNK1E (human) (UniProt P49674)
[30] = target: JAK1 JH1 catalytic (human) (UniProt P23458)
[31] = target: CDKL1 (human) (UniProt Q00532)
[32] = target: STK3 (human) (UniProt Q13188)
[33] = target: MAPK11 (human) (UniProt Q15759)
[34] = target: YSK4 (human) (UniProt Q56UN5)
[35] = target: CDK4 CCND3 (human) (UniProt P11802+P30281)
[36] = target: RIPK4 (human) (UniProt P57078)
[37] = target: MKNK1 (human) (UniProt Q9BUB5)
[38] = target: FGFR2 (human) (UniProt P21802)
[39] = target: PIK3CA (human) (UniProt P42336)
[40] = target: CAMKK1 (human) (UniProt Q8N5S9)

DDR1 (human), sequence (Q08345 whole entry, looked up): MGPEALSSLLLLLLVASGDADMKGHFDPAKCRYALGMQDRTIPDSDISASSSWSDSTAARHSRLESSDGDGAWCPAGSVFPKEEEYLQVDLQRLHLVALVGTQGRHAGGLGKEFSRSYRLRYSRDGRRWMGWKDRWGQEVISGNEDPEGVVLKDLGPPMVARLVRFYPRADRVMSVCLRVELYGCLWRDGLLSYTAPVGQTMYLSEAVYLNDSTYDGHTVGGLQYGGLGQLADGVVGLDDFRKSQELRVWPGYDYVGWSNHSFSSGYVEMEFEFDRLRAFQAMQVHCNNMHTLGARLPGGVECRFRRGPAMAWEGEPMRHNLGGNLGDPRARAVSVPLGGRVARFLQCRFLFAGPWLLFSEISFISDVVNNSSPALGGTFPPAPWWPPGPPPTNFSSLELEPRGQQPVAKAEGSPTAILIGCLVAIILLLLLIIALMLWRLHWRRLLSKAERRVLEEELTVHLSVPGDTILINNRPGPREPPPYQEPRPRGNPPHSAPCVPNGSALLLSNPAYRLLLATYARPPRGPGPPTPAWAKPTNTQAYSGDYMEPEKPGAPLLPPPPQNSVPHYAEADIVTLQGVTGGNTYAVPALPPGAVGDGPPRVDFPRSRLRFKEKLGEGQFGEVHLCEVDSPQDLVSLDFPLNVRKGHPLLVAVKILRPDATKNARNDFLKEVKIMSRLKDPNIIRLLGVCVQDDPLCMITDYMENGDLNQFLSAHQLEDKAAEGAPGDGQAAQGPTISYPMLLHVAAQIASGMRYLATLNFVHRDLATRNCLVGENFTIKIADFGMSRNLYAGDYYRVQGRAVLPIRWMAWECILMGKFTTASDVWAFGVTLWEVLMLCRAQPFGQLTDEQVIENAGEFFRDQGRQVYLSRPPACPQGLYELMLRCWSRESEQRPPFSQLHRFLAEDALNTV
PRPF4B (human), sequence (Q13523 whole entry, looked up): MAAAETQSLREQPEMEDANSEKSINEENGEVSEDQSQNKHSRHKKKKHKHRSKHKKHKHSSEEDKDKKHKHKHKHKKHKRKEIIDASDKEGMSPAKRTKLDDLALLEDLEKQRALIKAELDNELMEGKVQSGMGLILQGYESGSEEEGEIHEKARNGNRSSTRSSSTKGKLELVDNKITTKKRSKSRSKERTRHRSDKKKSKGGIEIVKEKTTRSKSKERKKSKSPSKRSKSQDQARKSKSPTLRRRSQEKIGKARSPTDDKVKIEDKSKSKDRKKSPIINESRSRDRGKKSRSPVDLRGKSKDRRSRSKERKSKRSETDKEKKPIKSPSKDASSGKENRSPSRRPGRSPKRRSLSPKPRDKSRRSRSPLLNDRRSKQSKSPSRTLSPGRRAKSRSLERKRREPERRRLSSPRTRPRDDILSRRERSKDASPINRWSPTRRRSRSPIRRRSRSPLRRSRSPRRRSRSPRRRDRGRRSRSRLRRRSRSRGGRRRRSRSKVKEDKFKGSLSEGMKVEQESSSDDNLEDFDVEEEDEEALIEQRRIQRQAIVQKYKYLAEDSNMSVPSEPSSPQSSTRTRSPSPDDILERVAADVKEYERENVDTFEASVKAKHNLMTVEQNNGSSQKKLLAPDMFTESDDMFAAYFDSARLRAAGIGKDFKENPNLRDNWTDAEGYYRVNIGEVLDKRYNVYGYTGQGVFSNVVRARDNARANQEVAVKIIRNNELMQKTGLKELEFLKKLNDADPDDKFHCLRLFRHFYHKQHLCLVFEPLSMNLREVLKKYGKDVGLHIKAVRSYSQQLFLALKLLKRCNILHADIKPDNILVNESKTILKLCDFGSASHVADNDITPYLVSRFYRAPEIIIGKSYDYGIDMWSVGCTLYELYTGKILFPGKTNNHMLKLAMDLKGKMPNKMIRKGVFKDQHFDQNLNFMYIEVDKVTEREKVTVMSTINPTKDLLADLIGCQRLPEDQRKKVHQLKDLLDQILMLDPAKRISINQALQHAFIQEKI
FER (human), sequence (P16591 whole entry, looked up): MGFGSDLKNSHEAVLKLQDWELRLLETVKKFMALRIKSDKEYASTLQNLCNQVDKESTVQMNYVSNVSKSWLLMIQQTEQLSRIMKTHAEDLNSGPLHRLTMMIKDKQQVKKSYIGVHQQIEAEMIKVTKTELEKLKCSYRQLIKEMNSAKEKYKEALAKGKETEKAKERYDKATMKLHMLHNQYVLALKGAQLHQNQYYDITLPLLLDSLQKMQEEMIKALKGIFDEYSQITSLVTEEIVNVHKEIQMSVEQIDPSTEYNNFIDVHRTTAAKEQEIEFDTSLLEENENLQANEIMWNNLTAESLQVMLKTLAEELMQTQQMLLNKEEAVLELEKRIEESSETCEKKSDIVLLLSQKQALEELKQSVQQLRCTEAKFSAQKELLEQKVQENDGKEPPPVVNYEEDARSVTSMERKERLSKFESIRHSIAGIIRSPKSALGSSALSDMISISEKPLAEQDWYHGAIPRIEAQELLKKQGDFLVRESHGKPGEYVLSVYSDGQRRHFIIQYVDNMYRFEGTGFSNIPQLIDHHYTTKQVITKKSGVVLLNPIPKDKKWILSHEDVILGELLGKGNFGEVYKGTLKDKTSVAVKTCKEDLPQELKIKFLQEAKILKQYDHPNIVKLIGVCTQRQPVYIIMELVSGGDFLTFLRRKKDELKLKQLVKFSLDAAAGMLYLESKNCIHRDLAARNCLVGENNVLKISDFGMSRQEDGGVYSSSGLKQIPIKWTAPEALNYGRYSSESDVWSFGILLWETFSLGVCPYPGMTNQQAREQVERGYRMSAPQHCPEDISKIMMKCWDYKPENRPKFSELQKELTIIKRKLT
IRAK4 (human), sequence (Q9NWZ3 whole entry, looked up): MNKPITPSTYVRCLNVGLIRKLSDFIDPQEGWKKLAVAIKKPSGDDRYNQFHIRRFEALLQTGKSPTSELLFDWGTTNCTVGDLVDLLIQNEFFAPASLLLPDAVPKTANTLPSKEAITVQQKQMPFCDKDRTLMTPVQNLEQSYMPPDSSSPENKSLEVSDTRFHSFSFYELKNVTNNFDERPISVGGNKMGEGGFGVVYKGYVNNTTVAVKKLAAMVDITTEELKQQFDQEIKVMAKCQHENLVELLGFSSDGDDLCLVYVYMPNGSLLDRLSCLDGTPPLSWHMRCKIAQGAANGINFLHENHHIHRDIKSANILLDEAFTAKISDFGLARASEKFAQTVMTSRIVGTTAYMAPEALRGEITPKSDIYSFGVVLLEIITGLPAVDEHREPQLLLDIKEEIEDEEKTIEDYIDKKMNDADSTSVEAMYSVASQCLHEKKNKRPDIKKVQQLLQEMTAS
PRKCH (human), sequence (P24723 whole entry, looked up): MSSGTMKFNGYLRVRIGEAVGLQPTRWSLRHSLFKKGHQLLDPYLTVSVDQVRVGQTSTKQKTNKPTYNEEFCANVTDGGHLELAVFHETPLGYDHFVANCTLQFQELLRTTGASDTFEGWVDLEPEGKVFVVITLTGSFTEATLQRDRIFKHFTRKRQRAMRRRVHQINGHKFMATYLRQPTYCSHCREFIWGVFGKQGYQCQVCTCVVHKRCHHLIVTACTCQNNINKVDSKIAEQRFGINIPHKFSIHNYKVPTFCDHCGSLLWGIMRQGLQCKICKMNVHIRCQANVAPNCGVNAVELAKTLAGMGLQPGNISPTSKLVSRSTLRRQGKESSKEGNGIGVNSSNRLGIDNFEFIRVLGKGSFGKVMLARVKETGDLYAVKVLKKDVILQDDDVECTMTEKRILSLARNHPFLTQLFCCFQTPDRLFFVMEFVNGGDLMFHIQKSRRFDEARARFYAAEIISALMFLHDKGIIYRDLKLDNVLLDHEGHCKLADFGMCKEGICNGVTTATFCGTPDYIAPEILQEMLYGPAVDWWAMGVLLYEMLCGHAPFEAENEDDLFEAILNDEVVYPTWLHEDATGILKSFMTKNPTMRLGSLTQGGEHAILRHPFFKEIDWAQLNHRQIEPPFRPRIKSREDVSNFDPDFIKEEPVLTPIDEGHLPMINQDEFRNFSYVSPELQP
FGFR2 (human), sequence (P21802 whole entry, looked up): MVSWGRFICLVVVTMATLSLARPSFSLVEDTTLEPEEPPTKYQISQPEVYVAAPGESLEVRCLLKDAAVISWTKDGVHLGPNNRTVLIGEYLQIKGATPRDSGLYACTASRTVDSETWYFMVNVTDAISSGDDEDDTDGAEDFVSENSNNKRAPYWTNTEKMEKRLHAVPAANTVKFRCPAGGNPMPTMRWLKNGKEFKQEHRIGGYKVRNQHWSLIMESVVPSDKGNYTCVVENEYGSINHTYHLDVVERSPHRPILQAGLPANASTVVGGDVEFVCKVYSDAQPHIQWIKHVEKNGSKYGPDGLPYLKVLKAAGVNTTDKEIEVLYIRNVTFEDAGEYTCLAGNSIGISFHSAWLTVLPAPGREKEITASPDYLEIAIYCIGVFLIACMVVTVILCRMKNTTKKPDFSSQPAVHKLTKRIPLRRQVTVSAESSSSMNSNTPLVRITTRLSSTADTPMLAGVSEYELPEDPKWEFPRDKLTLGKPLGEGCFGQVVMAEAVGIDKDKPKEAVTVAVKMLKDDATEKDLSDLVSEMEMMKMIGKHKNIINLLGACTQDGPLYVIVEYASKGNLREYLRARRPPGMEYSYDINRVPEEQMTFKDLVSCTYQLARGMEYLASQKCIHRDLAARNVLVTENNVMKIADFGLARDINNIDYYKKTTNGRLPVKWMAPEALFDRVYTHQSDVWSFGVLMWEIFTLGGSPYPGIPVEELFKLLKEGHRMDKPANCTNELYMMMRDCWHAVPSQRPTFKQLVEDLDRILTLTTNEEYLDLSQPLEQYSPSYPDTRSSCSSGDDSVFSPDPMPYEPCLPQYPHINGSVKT
PIM2 (human), sequence (Q9P1W9 whole entry, looked up): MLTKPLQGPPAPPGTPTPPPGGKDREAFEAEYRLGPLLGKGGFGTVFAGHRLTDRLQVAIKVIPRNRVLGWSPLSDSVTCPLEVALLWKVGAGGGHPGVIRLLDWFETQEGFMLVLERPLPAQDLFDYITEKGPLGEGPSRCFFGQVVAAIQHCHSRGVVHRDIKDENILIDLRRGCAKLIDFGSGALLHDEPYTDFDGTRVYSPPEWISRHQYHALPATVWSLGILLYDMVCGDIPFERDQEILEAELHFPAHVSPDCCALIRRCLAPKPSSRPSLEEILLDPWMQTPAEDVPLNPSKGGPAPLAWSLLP

SMILES | kinase still bound, per cent of control [1] [%] | kinase still bound, per cent of control [2] [%] | kinase still bound, per cent of control [3] [%] | kinase still bound, per cent of control [6] [%] | kinase still bound, per cent of control [7] [%] | kinase still bound, per cent of control [8] [%] | kinase still bound, per cent of control [9] [%] | kinase still bound, per cent of control [10] [%] | kinase still bound, per cent of control [11] [%] | kinase still bound, per cent of control [15] [%] | kinase still bound, per cent of control [16] [%] | kinase still bound, per cent of control [19] [%] | kinase still bound, per cent of control [20] [%] | kinase still bound, per cent of control [21] [%] | kinase still bound, per cent of control [22] [%] | kinase still bound, per cent of control [24] [%] | kinase still bound, per cent of control [25] [%] | kinase still bound, per cent of control [26] [%] | kinase still bound, per cent of control [27] [%] | kinase still bound, per cent of control [29] [%] | further results
COc1cc2ncn(-c3cc(OCc4ccccc4C(F)(F)F)c(C(N)=O)s3)c2cc1OC | 73 | 83 | 34 | 96 | 100 | 41 | 20 | 74 | 58 | 27 | 100 | 100 | 77 | 8.6 | 100 | 100 | 100 | 98 | 94 | 77 | kinase still bound, per cent of control [4]: 57%; kinase still bound, per cent of control [5]: 100%; kinase still bound, per cent of control [12]: 76%; kinase still bound, per cent of control [13]: 58%; kinase still bound, per cent of control [14]: 83%; kinase still bound, per cent of control [17]: 15%; kinase still bound, per cent of control [18]: 72%; kinase still bound, per cent of control [23]: 34%; kinase still bound, per cent of control [28]: 100%; kinase still bound, per cent of control [30]: 100%; kinase still bound, per cent of control [31]: 72%; kinase still bound, per cent of control [32]: 1.8%; kinase still bound, per cent of control [33]: 88%; kinase still bound, per cent of control [34]: 34%; kinase still bound, per cent of control [35]: 100%; kinase still bound, per cent of control [36]: 100%; kinase still bound, per cent of control [37]: 88%
C[C@@H](Oc1cc(-c2cnn(C3CCNCC3)c2)cnc1N)c1c(Cl)ccc(F)c1Cl | 81 | 0 | 46 | 61 | 100 | 11 | 48 | 6.7 | 24 | 3.4 | 0.3 | 100 | 98 | 74 | 0.4 | 2 | 79 | 33 | 68 | 100 | kinase still bound, per cent of control [38]: 35%; kinase still bound, per cent of control [4]: 1%; kinase still bound, per cent of control [5]: 100%; kinase still bound, per cent of control [13]: 54%; kinase still bound, per cent of control [14]: 94%; kinase still bound, per cent of control [17]: 15%; kinase still bound, per cent of control [28]: 100%; kinase still bound, per cent of control [30]: 0.45%; kinase still bound, per cent of control [31]: 81%; kinase still bound, per cent of control [32]: 0%; kinase still bound, per cent of control [33]: 100%; kinase still bound, per cent of control [34]: 2.4%; kinase still bound, per cent of control [39]: 100%; kinase still bound, per cent of control [35]: 39%; kinase still bound, per cent of control [36]: 8.2%; kinase still bound, per cent of control [40]: 60%; kinase still bound, per cent of control [37]: 100%
N#CCNC(=O)c1ccc(-c2ccnc(Nc3ccc(N4CCOCC4)cc3)n2)cc1 | 55 | 85 | 30 | 59 | 100 | 88 | 8 | 2.2 | 64 | 18 | 100 | 100 | 91 | 7 | 100 | 100 | 100 | 98 | 59 | 100 | kinase still bound, per cent of control [38]: 58%; kinase still bound, per cent of control [4]: 100%; kinase still bound, per cent of control [5]: 100%; kinase still bound, per cent of control [12]: 100%; kinase still bound, per cent of control [13]: 100%; kinase still bound, per cent of control [17]: 12%; kinase still bound, per cent of control [18]: 100%; kinase still bound, per cent of control [23]: 69%; kinase still bound, per cent of control [30]: 13%; kinase still bound, per cent of control [31]: 60%; kinase still bound, per cent of control [32]: 52%; kinase still bound, per cent of control [33]: 100%; kinase still bound, per cent of control [34]: 1.7%; kinase still bound, per cent of control [35]: 13%; kinase still bound, per cent of control [36]: 100%; kinase still bound, per cent of control [40]: 27%; kinase still bound, per cent of control [37]: 84%
CNC(=O)c1cc(Oc2ccc(NC(=O)Nc3ccc(Cl)c(C(F)(F)F)c3)cc2)ccn1 | 33 | 99 | 96 | 100 | 91 | 18 | 100 | 100 | 95 | 100 | 0.1 | 87 | 65 | 99 | 0 | 87 | 100 | 100 | 85 | 100 | kinase still bound, per cent of control [38]: 14%; kinase still bound, per cent of control [12]: 100%; kinase still bound, per cent of control [14]: 70%; kinase still bound, per cent of control [18]: 80%; kinase still bound, per cent of control [28]: 100%; kinase still bound, per cent of control [30]: 50%; kinase still bound, per cent of control [31]: 70%; kinase still bound, per cent of control [32]: 85%; kinase still bound, per cent of control [33]: 0.2%; kinase still bound, per cent of control [34]: 0.4%; kinase still bound, per cent of control [35]: 79%; kinase still bound, per cent of control [36]: 92%; kinase still bound, per cent of control [40]: 89%; kinase still bound, per cent of control [37]: 2.1%
